Reference: paper PMC8963254, “Effects of Lysine N-ζ-Methylation in Ultrashort Tetrabasic Lipopeptides (UTBLPs) on the Potentiation of Rifampicin, Novobiocin, and Niclosamide in Gram-Negative Bacteria” (Antibiotics, 2022)
In brackets after ≈: the same amount, converted by molar mass. Like-named read-outs stand apart in the source and are kept apart here.

What was measured:
P. aeruginosa PAO1 [1] = format: cell-based, Pseudomonas aeruginosa; details: PAO1, 18 h
Procedure: (§1) The in vitro antibacterial activity of the UTBLPs was assessed against wild-type and clinically isolated bacterial strains. To obtain the MIC of the compounds, the microbroth dilution susceptibility assay was performed according to the Clinical and Laboratory Standards Institute (CLSI, Wayne, PA, USA) guidelines and as previously described. Briefly, the compounds at varying concentrations were incubated with bacterial inoculum (5 × 10^5 CFU/mL final concentration) at 37 °C for 18 h. Growth in the form of turbidity was confirmed using an EMax Plus microplate reader (Molecular Devices, San Jose, CA, USA) at 590 nm.

MRSA ATCC 33592 [2] = format: cell-based, Staphylococcus aureus; details: ATCC 33592, 18 h
Procedure: as §1

S. aureus ATCC 29213 [3] = format: cell-based, Staphylococcus aureus; details: ATCC 29213, 18 h
Procedure: as §1

A. baumannii AB027 = test: microbe, parasite or virus in culture; format: cell-based, Acinetobacter baumannii; details: AB027, 18 h
How it was run: (§2)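 MIC was determined by broth microdilution following CLSI guidelines. Serially varied compound concentrations were incubated with bacterial inoculum at 5 × 10^5 CFU/mL (final) for 18 h at 37 °C. Growth was scored as turbidity by absorbance at 590 nm.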

A. baumannii AB92247 = test: microbe, parasite or virus in culture; format: cell-based, Acinetobacter baumannii; details: AB92247, 18 h
How it was run: as §2

E. coli 94393 = test: microbe, parasite or virus in culture; format: cell-based, Escherichia coli; details: 94393, 18 h
How it was run: as §2

E. coli 94474 = test: microbe, parasite or virus in culture; format: cell-based, Escherichia coli; details: 94474, 18 h
How it was run: as §2

E. cloacae 118564 [4] = test: microbe, parasite or virus in culture; format: cell-based, Enterobacter cloacae; details: 118564, 18 h
How it was run: as §2

K. pneumoniae 113250 = test: microbe, parasite or virus in culture; format: cell-based, Klebsiella pneumoniae; details: 113250, 18 h
How it was run: as §2

[5] = system: P. aeruginosa PA259-96196; format: cell-based, Pseudomonas aeruginosa; details: for MICUTBLP: UTBLP alone
Procedure: (§3) The synergy of the UTBLPs with various antibiotics was assessed using checkerboard assay as previously described. Briefly, the combination of antibiotic and OMP at varying concentrations were incubated with bacterial inoculum (5 × 10^5 CFU/mL final concentration) at 37 °C for 18 h. Growth in the form of turbidity was confirmed using an EMax Plus microplate reader (Molecular Devices, Union City, CA, USA) at 590 nm. Fractional inhibitory concentration index (FICI) was used to evaluate the interaction between the antibiotic and the OMP. FICI is the sum of the FIC of the antibiotic and the FIC of the OMP. The FIC value is calculated by dividing the MIC of the agents in combination by the MIC of the agent alone. FICI ≤ 0.5 is synergistic, 0.5 < x ≤ 4 is additive, and >4 is antagonistic.

[6] = system: P. aeruginosa PA262-101856; format: cell-based, Pseudomonas aeruginosa; details: for MICUTBLP: UTBLP alone
Procedure: as §3

P. aeruginosa PAO1 [7] = format: cell-based, Pseudomonas aeruginosa; details: for MICUTBLP: UTBLP alone
Procedure: as §3

E. cloacae 118564 [8] = format: cell-based, Enterobacter cloacae; details: for MICUTBLP: UTBLP alone
Procedure: as §3

MRSA ATCC 33592 [9] = format: cell-based, Staphylococcus aureus
Procedure: as §3

S. aureus ATCC 29213 [10] = format: cell-based, Staphylococcus aureus
Procedure: as §3

E. faecalis ATCC 29212 = format: cell-based, Enterococcus faecalis
Procedure: as §3

E. faecium ATCC 27270 = format: cell-based, Enterococcus faecium
Procedure: as §3

[11] = UTBLP in combination with novobiocin
[12] = UTBLP in combination with rifampicin
[13] = novobiocin in combination with the UTBLP
[14] = rifampicin in combination with the UTBLP
[15] = UTBLP in combination with chloramphenicol
[16] = chloramphenicol in combination with the UTBLP
[17] = UTBLP alone, plate with chloramphenicol

SMILES: CCCCCCCC(=O)N[C@@H](CCCCN)C(=O)NCCCN(CCCNC(=O)[C@H](CCCCN)NC(=O)CCCCCCC)CC(=O)N[C@@H](CCCCN)C(N)=O [UTBLP 1]
- MIC (P. aeruginosa PAO1 [1]): >128 µg/mL
- MIC (MRSA ATCC 33592 [2]): 128 µg/mL (≈ 155 µM)
- MIC (S. aureus ATCC 29213 [3]): 64 µg/mL (≈ 77.6 µM)
- MIC (A. baumannii AB027): 128 µg/mL (≈ 155 µM)
- MIC (A. baumannii AB92247): 64 µg/mL (≈ 77.6 µM)
- MIC (E. coli 94393): > 128 µg/mL
- MIC (E. coli 94474): > 128 µg/mL
- MIC (E. cloacae 118564 [4]): > 128 µg/mL
- MIC (K. pneumoniae 113250): > 128 µg/mL
- Interpretation ([5]; UTBLP + novobiocin): Synergy (FICI ≤ 0.5 is synergistic)
- Interpretation ([5]; UTBLP + rifampicin): Synergy (FICI ≤ 0.5 is synergistic)
- MICUTBLP ([5]; plate with novobiocin): > 128 µg/mL
- MICUTBLP ([5]; plate with rifampicin): > 128 µg/mL
- MICUTBLP [MICcombo] [5, 11]: 8 µg/mL
- MICUTBLP [MICcombo] [5, 12]: 16 µg/mL
- MICantibiotic [MICcombo] [5, 13]: 128 µg/mL
- MICantibiotic [MICcombo] [5, 14]: 0.5 µg/mL
- Interpretation ([6]; UTBLP + novobiocin): Synergy (FICI ≤ 0.5 is synergistic)
- Interpretation ([6]; UTBLP + rifampicin): Synergy (FICI ≤ 0.5 is synergistic)
- MICUTBLP ([6]; plate with novobiocin): 128 µg/mL
- MICUTBLP ([6]; plate with rifampicin): 128 µg/mL
- MICUTBLP [MICcombo] [6, 11]: 16 µg/mL
- MICUTBLP [MICcombo] [6, 12]: 16 µg/mL
- MICantibiotic [MICcombo] [6, 13]: 64 µg/mL
- MICantibiotic [MICcombo] [6, 14]: 256 µg/mL
- Interpretation (P. aeruginosa PAO1 [7]; UTBLP + chloramphenicol): Synergy (FICI ≤ 0.5 is synergistic)
- Interpretation (P. aeruginosa PAO1 [7]; UTBLP + niclosamide): Additive (0.5 < x ≤ 4 is additive)
- Interpretation (P. aeruginosa PAO1 [7]; UTBLP + novobiocin): Synergy (FICI ≤ 0.5 is synergistic)
- Interpretation (P. aeruginosa PAO1 [7]; UTBLP + rifampicin): Synergy (FICI ≤ 0.5 is synergistic)
- MICUTBLP (P. aeruginosa PAO1 [7]; plate with chloramphenicol): > 128 µg/mL
- MICUTBLP (P. aeruginosa PAO1 [7]; plate with niclosamide): > 128 µg/mL
- MICUTBLP (P. aeruginosa PAO1 [7]; plate with novobiocin): > 128 µg/mL
- MICUTBLP (P. aeruginosa PAO1 [7]; plate with rifampicin): > 128 µg/mL
- MICUTBLP [MICcombo] (P. aeruginosa PAO1 [7]; [15]): 2 µg/mL
- MICUTBLP [MICcombo] (P. aeruginosa PAO1 [7]; UTBLP in combination with niclosamide): 0.25 µg/mL
- MICUTBLP [MICcombo] (P. aeruginosa PAO1 [7]; [11]): 16 µg/mL
- MICUTBLP [MICcombo] (P. aeruginosa PAO1 [7]; [12]): 4 µg/mL
- MICantibiotic [MICcombo] (P. aeruginosa PAO1 [7]; [16]): 4 µg/mL
- MICantibiotic [MICcombo] (P. aeruginosa PAO1 [7]; niclosamide in combination with the UTBLP): 1024 µg/mL
- MICantibiotic [MICcombo] (P. aeruginosa PAO1 [7]; [13]): 32 µg/mL
- MICantibiotic [MICcombo] (P. aeruginosa PAO1 [7]; [14]): 2 µg/mL
- Interpretation (E. cloacae 118564 [8]; UTBLP + novobiocin): Synergy (FICI ≤ 0.5 is synergistic)
- Interpretation (E. cloacae 118564 [8]; UTBLP + rifampicin): Synergy (FICI ≤ 0.5 is synergistic)
- MICUTBLP (E. cloacae 118564 [8]; plate with novobiocin): > 128 µg/mL
- MICUTBLP (E. cloacae 118564 [8]; plate with rifampicin): > 128 µg/mL
- MICUTBLP [MICcombo] (E. cloacae 118564 [8]; [11]): 8 µg/mL
- MICUTBLP [MICcombo] (E. cloacae 118564 [8]; [12]): 8 µg/mL
- MICantibiotic [MICcombo] (E. cloacae 118564 [8]; [13]): 2 µg/mL
- MICantibiotic [MICcombo] (E. cloacae 118564 [8]; [14]): 0.125 µg/mL
- Interpretation (MRSA ATCC 33592 [9]; UTBLP + chloramphenicol): Additive (0.5 < x ≤ 4 is additive)
- MICUTBLP (MRSA ATCC 33592 [9]; [17]): 128 µg/mL
- MICUTBLP [MICcombo] (MRSA ATCC 33592 [9]; [15]): 0.25 µg/mL
- MICchloramphenicol [MICcombo] (MRSA ATCC 33592 [9]; [16]): 64 µg/mL
- MICUTBLP (S. aureus ATCC 29213 [10]; [17]): 64 µg/mL
- MICUTBLP [MICcombo] (S. aureus ATCC 29213 [10]; [15]): 0.25 µg/mL
- MICchloramphenicol [MICcombo] (S. aureus ATCC 29213 [10]; [16]): 8 µg/mL
- Interpretation (E. faecalis ATCC 29212; UTBLP + chloramphenicol): Additive (0.5 < x ≤ 4 is additive)
- MICUTBLP (E. faecalis ATCC 29212; [17]): 128 µg/mL
- MICUTBLP [MICcombo] (E. faecalis ATCC 29212; [15]): 16 µg/mL
- MICchloramphenicol [MICcombo] (E. faecalis ATCC 29212; [16]): 2 µg/mL
- Interpretation (E. faecium ATCC 27270; UTBLP + chloramphenicol): Additive (0.5 < x ≤ 4 is additive)
- MICUTBLP (E. faecium ATCC 27270; [17]): 64 µg/mL
- MICUTBLP [MICcombo] (E. faecium ATCC 27270; [15]): 0.25 µg/mL
- MICchloramphenicol [MICcombo] (E. faecium ATCC 27270; [16]): 8 µg/mL
